Measurements as given in patent US5985589A, “Lipid kinase” (ICOS Corporation, priority 1999, dated 1999).

Test system: p110δ
Experiment: PI 3-kinase activity of immunoprecipitated FLAG-tagged p110δ (lipid kinase assay, TLC/autoradiography)
Type: biochemical, human
Conditions: at 100 nM wortmannin; p110δ immunoprecipitated from transfected COS cells
Experimental: The FLAG-tagged p110δ was expressed by transfecting pCDNA3:p110δFLAG into COS cells using DEAE dextran. Three days after transfection, expression of p110δ was determined by immunoprecipitations and western blotting using the M2 monoclonal antibody (Kodak Scientific Imaging Systems) according to the manufacturer's instructions. PI 3-kinase activity was determined as described [Hu et al., Mol. Cell. Biol., 13:7677-7688 (1993)].
To determine the PI 3-kinase activity of p110δ, 5μl of immunoprecipitated p110δ was mixed with 1 μl of PI/EGTA and incubated at room temperature for 10 minutes [PI/EGTA is 10 mg/ml PI(Sigma) in CHCl3, which has been dried under a vacuum, resuspended in 20 mg/ml DMSO in the presence or absence of various concentrations of the PI3 kinase inhibitor wortmannin and diluted 1:10 in 5 mM EGTA] and added to 1 μl 10× HM buffer (200 mM HEPES pH7.2, 50 mM MnCl2), 0.5 μl γ^32 PATP (10 mCi/ml-300 Ci/mmol), 1 μl 100 μM ATP, and 1.5 μl H2 O and incubated at 30° C. for 15 minutes. The reactions were terminated by addition of 100μl 1M HCl. Lipids were extracted with 200 μl CHCl3 /MeOH (1:1) by vortexing for 1 minute followed by centrifugation at 16,000×g for 2 minutes at room temperature. The lipids were further extracted with 80 μl 1M HCl/MeOH (1:1) by vortexing for 1 minutes, followed by centrifugation at 16,000×g for 2 minutes at room temperature. […]

Q: How did the “inhibition of PI 3-kinase activity (generation of phosphorylated lipids)” value turn out when `COC[C@H]1OC(=O)c2coc3c2[C@@]1(C)C1=C(C3=O)[C@@H]2CCC(=O)[C@@]2(C)C[C@H]1OC(C)=O` [wortmannin] was run?
A: Its value is “approximately 50%”.
